Experimental data taken from patent US20180148418A1, “AMIDO-SUBSTITUTED CYCLOHEXANE DERIVATIVES” (Bayer Pharma Aktiengesellschaft, priority 2015, published 2018).

Assays:
TNKS2 = molecular target: T1, TNKS2 (Homo sapiens, UniProt Q9H2K2); test: TNKS2 Assay B (auto-parsylation, [3H]-NAD+ SPA); assay type: biochemical; details: 6 nM TNKS2, auto-parsylation, over night at room temperature
T1 construct: purchased BPS Bioscience, San Diego, USA 80572 (TNKS2 Histone Ribosylation Assay Kit)
T1 sequence (Q9H2K2 1-1166): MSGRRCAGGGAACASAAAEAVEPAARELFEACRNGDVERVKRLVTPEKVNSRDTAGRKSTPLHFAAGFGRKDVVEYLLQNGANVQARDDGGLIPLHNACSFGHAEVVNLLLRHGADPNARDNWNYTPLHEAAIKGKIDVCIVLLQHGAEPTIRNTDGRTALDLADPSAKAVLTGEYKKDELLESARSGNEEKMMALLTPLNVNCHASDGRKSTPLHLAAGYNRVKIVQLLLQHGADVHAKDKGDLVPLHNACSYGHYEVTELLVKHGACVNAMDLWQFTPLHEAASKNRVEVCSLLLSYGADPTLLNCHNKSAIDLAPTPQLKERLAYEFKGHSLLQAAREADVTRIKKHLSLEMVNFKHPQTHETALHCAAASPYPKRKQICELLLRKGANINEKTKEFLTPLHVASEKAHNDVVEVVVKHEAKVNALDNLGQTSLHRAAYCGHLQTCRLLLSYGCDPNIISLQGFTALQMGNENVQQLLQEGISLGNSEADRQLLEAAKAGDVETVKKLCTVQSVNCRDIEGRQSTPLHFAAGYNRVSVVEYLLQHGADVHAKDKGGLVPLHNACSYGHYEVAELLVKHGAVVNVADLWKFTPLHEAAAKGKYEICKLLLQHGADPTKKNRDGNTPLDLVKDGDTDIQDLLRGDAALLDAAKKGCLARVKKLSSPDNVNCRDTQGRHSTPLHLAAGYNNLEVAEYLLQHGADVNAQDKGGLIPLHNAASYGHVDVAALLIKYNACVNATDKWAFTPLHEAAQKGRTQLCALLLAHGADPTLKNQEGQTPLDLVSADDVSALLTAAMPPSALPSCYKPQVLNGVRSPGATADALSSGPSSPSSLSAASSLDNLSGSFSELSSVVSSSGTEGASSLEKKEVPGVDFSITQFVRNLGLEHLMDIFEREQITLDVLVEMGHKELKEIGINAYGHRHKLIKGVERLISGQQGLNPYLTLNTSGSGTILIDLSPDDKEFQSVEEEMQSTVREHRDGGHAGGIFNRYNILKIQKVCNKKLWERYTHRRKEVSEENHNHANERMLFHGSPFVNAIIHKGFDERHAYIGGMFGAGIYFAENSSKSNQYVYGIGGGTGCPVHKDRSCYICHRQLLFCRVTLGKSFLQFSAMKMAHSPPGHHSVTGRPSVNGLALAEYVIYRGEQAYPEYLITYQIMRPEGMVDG

[1] = test system: HEK293 cells cotransfected with the FOP control vector; test: HEK293 FOP assay (control reporter with non-functional TCF elements); assay type: cell-based; details: Homo sapiens, 16 hours
Method in brief: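 Compound series from 50 μM down to 15 nM, prediluted in DMSO then 50-fold into CAFTY buffer (pH 7.4, 2 mM Ca2+, 0.01% BSA), tested alongside TOP cells on a Geneticin-selected HEK293 FOP line whose TCF elements are replaced by a random sequence; recombinant human Wnt-3a applied at 2500-5 ng/ml.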

Row | SMILES | IC50 (TNKS2) | IC50 [1]
1 | CNC(=O)c1[nH]cnc1C(=O)N[C@@H]1CC[C@@H](C(=O)Nc2ccc(F)cc2Cl)C[C@@H]1F (racemic) [Example 31, N^4-{(1α,2α,4β)-4-[(2-chloro-4-fluorophenyl)carbamoyl]-2-fluorocyclohexyl}-N^5-methyl-1H-imidazole-4,5-dicarboxamide] | 120 nM | ≥ 50 µM
2 | CNC(=O)c1[nH]cnc1C(=O)N[C@@H]1CC[C@@H](C(=O)Nc2ccc(F)cc2Cl)C[C@H]1OC (racemic) [Example 35, N^4-{(1α,2β,4β)-4-[(2-chloro-4-fluorophenyl)carbamoyl]-2-methoxycyclohexyl}-N^5-methyl-1H-imidazole-4,5-dicarboxamide] | > 10000 nM | ≥ 50 µM
3 | CNC(=O)c1[nH]cnc1C(=O)N[C@H]1CC[C@H](C(=O)Nc2ccc(F)cc2Cl)CC1(F)F (single isomer, unassigned) [Example 33, N^4-{(trans)-4-[(2-chloro-4-fluorophenyl)carbamoyl]-2,2-difluorocyclohexyl}-N^5-methyl-1H-imidazole-4,5-dicarboxamide] | 380 nM | ≥ 50 µM
4 | CNC(=O)c1[nH]cnc1C(=O)NC1CCC(C(=O)Nc2ccc(F)cc2Cl)CC1C (single isomer, unassigned) [Example 41, N^4-{4-[(2-chloro-4-fluorophenyl)carbamoyl]-2-methylcyclohexyl}-N^5-methyl-1H-imidazole-4,5-dicarboxamide] | > 10000 nM | ≥ 50 µM
5 | O=C(NC1CCC(F)(C(=O)Nc2ccc(F)cc2Cl)CC1)c1cnn2cccnc12 (single isomer, unassigned) [Example 365, N-{4-[(2-chloro-4-fluorophenyl)carbamoyl]-4-fluorocyclohexyl}pyrazolo[1,5-a]pyrimidine-3-carboxamide (single isomer)] | > 10000 nM | 35 µM
6 | CNC(=O)c1[nH]cnc1C(=O)NC1CCC(F)(C(=O)Nc2ccc(F)cc2Cl)CC1 (single isomer, unassigned) [Example 366, N^4-{4-[(2-chloro-4-fluorophenyl)carbamoyl]-4-fluorocyclohexyl}-N^5-methyl-1H-imidazole-4,5-dicarboxamide (single isomer)] | > 10000 nM | ≥ 50 µM
7 | CNC(=O)c1[nH]cnc1C(=O)N[C@@H]1CC[C@@H](C(=O)Nc2ccc(F)cc2Cl)CC1(F)F (stereo in doubt) [Example 32, N^4-{(trans)-4-[(2-chloro-4-fluorophenyl)carbamoyl]-2,2-difluorocyclohexyl}-N^5-methyl-1H-imidazole-4,5-dicarboxamide] | 280 nM | ≥ 50 µM
8 | O=C(NCC1CCCO1)c1nc[nH]c1C(=O)N[C@H]1CC[C@H](C(=O)Nc2c(F)cc(F)cc2Cl)CC1 (stereo in doubt) [Example 71, N^5-{trans-4-[(2-chloro-4,6-difluorophenyl)carbamoyl]cyclohexyl}-N^4-[(2R)-tetrahydrofuran-2-ylmethyl]-1H-imidazole-4,5-dicarboxamide] | 66 nM | 23 µM
9 | CNC(=O)c1nc[nH]c1C(=O)N[C@H]1CC[C@H](C(=O)Nc2ccc(F)cc2Cl)CC1 [Example 1, N^5-{trans-4-[(2-chloro-4-fluorophenyl)carbamoyl]cyclohexyl}-N^4-methyl-1H-imidazole-4,5-dicarboxamide] | 72 nM | ≥ 50 µM
10 | O=C(N[C@H]1CC[C@H](C(=O)Nc2ccc(F)cc2Cl)CC1)c1[nH]cnc1C(=O)N1CC2(CCS2(=O)=O)C1 [Example 22, N-{trans-4-[(2-chloro-4-fluorophenyl)carbamoyl]cyclohexyl}-4-[(1,1-dioxido-1-thia-6-azaspiro[3.3]hept-6-yl)carbonyl]-1H-imidazole-5-carboxamide] | 5.3 nM | ≥ 50 µM
11 | O=C(N[C@H]1CC[C@H](C(=O)Nc2ccc(F)cc2Cl)CC1)c1[nH]cnc1C(=O)N1CCC1 [Example 23, 4-(azetidin-1-ylcarbonyl)-N-{trans-4-[(2-chloro-4-fluorophenyl)carbamoyl]cyclohexyl}-1H-imidazole-5-carboxamide] | 25 nM | ≥ 50 µM
12 | COC1CN(C(=O)c2nc[nH]c2C(=O)N[C@H]2CC[C@H](C(=O)Nc3ccc(F)cc3Cl)CC2)C1 [Example 24, 4 N-{trans-4-[(2-chloro-4-fluorophenyl)carbamoyl]cyclohexyl}-4-[(3-methoxyazetidin-1-yl)carbonyl]-1H-imidazole-5-carboxamide] | 17 nM | ≥ 50 µM
13 | O=C(NCCN1CC2(CCO2)C1)c1nc[nH]c1C(=O)N[C@H]1CC[C@H](C(=O)Nc2ccc(F)cc2Cl)CC1 [Example 25, N^5-{trans-4-[(2-chloro-4-fluorophenyl)carbamoyl]cyclohexyl}-N^4-[2-(1-oxa-6-azaspiro[3.3]hept-6-yl)ethyl]-1H-imidazole-4,5-dicarboxamide] | 11 nM | ≥ 50 µM
14 | CN(C)C1CN(C(=O)c2nc[nH]c2C(=O)N[C@H]2CC[C@H](C(=O)Nc3ccc(F)cc3Cl)CC2)C1 [Example 26, N-{trans-4-[(2-chloro-4-fluorophenyl)carbamoyl]cyclohexyl}-4-{[3-(dimethylamino)azetidin-1-yl]carbonyl}-1H-imidazole-5-carboxamide] | 80 nM | ≥ 50 µM
15 | CNC(=O)c1nc[nH]c1C(=O)N[C@H]1CC[C@H](C(=O)Nc2c(Br)cc(F)c(F)c2F)CC1 [Example 27, N^5-{trans-4-[(6-bromo-2,3,4-trifluorophenyl)carbamoyl]cyclohexyl}-N^4-methyl-1H-imidazole-4,5-dicarboxamide] | 19 nM | ≥ 50 µM
16 | CNC(=O)c1nc[nH]c1C(=O)N[C@H]1CC[C@H](C(=O)Nc2c(F)cc(F)cc2Br)CC1 [Example 28, N^5-{trans-4-[(6-bromo-2,4-difluorophenyl)carbamoyl]cyclohexyl}-N^4-methyl-1H-imidazole-4,5-dicarboxamide] | 26 nM | ≥ 50 µM
17 | CNC(=O)c1ncoc1C(=O)N[C@H]1CC[C@H](C(=O)Nc2ccc(F)cc2Cl)CC1 [Example 29, N^5-{trans-4-[(2-chloro-4-fluorophenyl)carbamoyl]cyclohexyl}-N^4-methyl-1,3-oxazole-4,5-dicarboxamide] | 590 nM | ≥ 50 µM
18 | CNC(=O)c1ocnc1C(=O)N[C@H]1CC[C@H](C(=O)Nc2ccc(F)cc2Cl)CC1 [Example 30] | > 10000 nM | 40 µM
19 | Cc1cc(C)n2ncc(C(=O)NC3CCC(C(=O)Nc4ccc(F)cc4Cl)CC3C)c2n1 (stereo not shown) [Example 42, N-{4-[(2-chloro-4-fluorophenyl)carbamoyl]-2-methylcyclohexyl}-5,7-dimethylpyrazolo[1,5-a]pyrimidine-3-carboxamide] | 120 nM | ≥ 50 µM
20 | O=C(N[C@H]1CC[C@H](C(=O)Nc2ccc(F)cc2Cl)CC1)c1cnn2cccnc12 [Example 43, N-{trans-4-[(2-chloro-4-fluorophenyl)carbamoyl]cyclohexyl}pyrazolo[1,5-a]pyrimidine-3-carboxamide] | 74 nM | ≥ 50 µM
21 | Cc1cc(C)n2ncc(C(=O)N[C@H]3CC[C@H](C(=O)Nc4ccc(F)cc4Cl)CC3)c2n1 [Example 44, N-{trans-4-[(2-chloro-4-fluorophenyl)carbamoyl]cyclohexyl}-5,7-dimethylpyrazolo[1,5-a]pyrimidine-3-carboxamide] | 150 nM | ≥ 50 µM
22 | O=C(N[C@H]1CC[C@H](C(=O)Nc2ccc(F)cc2Cl)CC1)c1cnc2cccnn12 [Example 45, N-{trans-4-[(2-chloro-4-fluorophenyl)carbamoyl]cyclohexyl}imidazo[1,2-b]pyridazine-3-carboxamide] | 130 nM | ≥ 50 µM
23 | CC(=O)c1cnc2c(C(=O)N[C@H]3CC[C@H](C(=O)Nc4ccc(F)cc4Cl)CC3)cnn2c1C [Example 46, 6-acetyl-N-{trans-4-[(2-chloro-4-fluorophenyl)carbamoyl]cyclohexyl}-7-methylpyrazolo[1,5-a]pyrimidine-3-carboxamide] | 25 nM | ≥ 50 µM
